Assay results from EP2605769B1, “BENZOQUINONE DERIVATIVES FOR THE TREATMENT OF MITCHONDRIAL EYE DISEASES” (Santhera Pharmaceuticals (Schweiz) AG, priority 2010, dated 2012).

Legend:
[1] = tested on: Primary human fibroblasts C4 (GM04545, Coriell); test: Lipid peroxidation assay (BODIPY 581/591-C11); format: cell-based; details: 10 µM test compound, 72 hours
Text: Lipid peroxidation is a well defined mechanism of cellular damage in both animals and plants that occurs during aging and in some disease states. This process proceeds by a free radical chain reaction mechanism. […] If not terminated fast enough, lipid peroxidation damages cellular membranes, affect membrane fluidity and also mitochondrial function. In addition, end products of lipid peroxidation may be mutagenic and carcinogenic. For instance, the reactive end product of lipid peroxidation, malondialdehyde, directly causes DNA damage. Experimental Procedure: […] BODIPY 581/591-C11 can be used to measure antioxidant activity in lipid environments by exploiting its loss of fluorescence upon interaction with peroxyl radicals. […] After that, 0.1 ml freshly prepared dye solution (HBSS, containing BODIPY dye 1:1000 from stock solution) was added and cells were returned to the incubator for 30 min. After 2 brief washes with 0.1 ml warmed PBS fluorescence was measured in 50 µl PBS. Fluorescence for 4 individual areas per well were individually quantified at two wavelengths (Ex1: 490, Em1: 600; Ex2: 490, Em2: 530, bandwith 10nm, 50 flashes, 400Hz frequency, 20 µs integration time).

[2] = tested on: RGC-5 cells; test: Cellular viability of RGC-like cells challenged with rotenone (cellular ATP content); format: cell-based; details: 1 day-preincubation, 100 µM
Text: Mitochondrial impairment directly influences cellular survival. Especially cells and tissues that display high level of energy consumption, such as neurons are especially vulnerable. Consequently, these cells and tissues are likely to be the most responsive to a strategy that targets mitochondrial function. We addressed this possibility by assessing the viability of the retinal ganglion cell line RGC-5, challenged with the mitochondrial complex I inhibitor rotenone, in the absence or presence of compounds.
Experimental procedure: RGC-5 cells were cultured under ambient conditions (37 °C, 5% CO2, 90% humidity) in DMEM (1g/l glucose; 10% fetal bovine serum (FBS), Penicillin-Streptomycin-Glutamine (PSG)). RGC-5 cells will be seeded in DMEM (1g/l glucose; 2% FBS) into BD Falcon™ cell culture plates. Before rotenone- induced complex I inhibition, the cells were pre-treated with Compound IA or vehicle. For Compound IA co-treatment with rotenone, new compound was added together with rotenone-containing cell culture media. After the rotenone exposure, the media was exchanged and replaced by Hanks' BSS for the 1 day post-incubation. The post-treatment media contained Compound IA or vehicle only. As measure of cell viability, cellular ATP content was analyzed using luminescence from ATP-dependent enzymatic oxidation of luciferin by luciferase. RGC-5 cells were be washed with PBS and lysed in lysis buffer (4 mM EDTA, 0.2% Triton X-100) at room temperature. In 96-well plates, ATP measurement buffer (25 mM HEPES pH 7.25, 300 µM D-luciferin, 5 µg/ml firefly luciferase, 75 µM DTT, 6.25 mM MgCl2, 625 µM EDTA and 1 mg/ml BSA) was combined with lysate to start the reaction. Luminescence was quantified immediately using a multimode plate reader (Tecan M1000, Tecan iControl 1.6 software; Tecan Austria GmbH, Grödig, Austria). Effects on cell viability were defined as the percentage of compound-mediated change in cell viability relative to rotenone-induced reduction in cell viability. Data are presented as mean ± SEM. Paired Student's t-test was used to compare non-normalized data. Statistical significance was set at p≤0.05(*), p≤0.01(**) and p≤0.001(***).

SMILES	Lipid peroxidation [1] [%]	cell viability, compound-mediated change relative to rotenone-induced reduction, mean (Fig. 2) [2]	cell viability, compound-mediated change relative to rotenone-induced reduction, mean (Fig. 2) ([2]; listed as PP) [%]	cell viability, compound-mediated change relative to rotenone-induced reduction, mean (Fig. 2) ([2]; listed as propentophilline)
COC1=C(OC)C(=O)C(CCCCCCCCCCO)=C(C)C1=O [Compound ID]	110	–	–	–
CCCn1cnc2c1c(=O)n(CCCCC(C)=O)c(=O)n2C [propentophylline, reference compound]	–	not significant	2.2	no significant protective activity
